Test results: patent publication US9669028B2, “Substituted 5-(pyrazin-2-yl)-1H-pyrazolo [3, 4-B] pyridine and pyrazolo [3, 4-B] pyridine derivatives as protein kinase inhibitors” (Arrien Pharmaceuticals LLC, priority 2011, dated 2017)

What was measured:
Assay type in all cases: biochemical
DYRK1A = DYRK1A (Homo sapiens (Human), UniProt Q13627); assay: In vitro DYRK1A inhibition assay
Protocol: (§1) Briefly, specific kinase/substrate pairs along with required cofactors were prepared in reaction buffer; 20 mM Hepes (pH 7.5), 10 mM MgCl2, 1 mM EGTA, 0.02% Brij35, 0.02 mg/ml BSA, 0.1 mM Na3VO4, 2 mM DTT, 1% DMSO. Compounds were delivered into the reaction, followed ˜20 min later by addition of a mixture of ATP (Sigma) and 33P ATP (PerkinElmer) to a final concentration of 10 μM. […] IC50 values and curve fits were obtained using Prism (GraphPad Software). Kinome tree representations were prepared using Kinome Mapper (http://www.reactionbiology.com/apps/kinome/mapper/Launch Kinome.htm).
The 2×DYRK1A/Ser/Thr 18 mixture was prepared in 50 mM HEPES pH 7.5, 0.01% BRIJ-35, 10 mM MgCl2, 1 mM EGTA.

LRRK2 = LRRK2 (Homo sapiens (Human), UniProt Q5S007); assay: LRRK2 Kinase Assay; conditions: 10 μM ATP
Chain of LRRK2 (Q5S007 970-2527): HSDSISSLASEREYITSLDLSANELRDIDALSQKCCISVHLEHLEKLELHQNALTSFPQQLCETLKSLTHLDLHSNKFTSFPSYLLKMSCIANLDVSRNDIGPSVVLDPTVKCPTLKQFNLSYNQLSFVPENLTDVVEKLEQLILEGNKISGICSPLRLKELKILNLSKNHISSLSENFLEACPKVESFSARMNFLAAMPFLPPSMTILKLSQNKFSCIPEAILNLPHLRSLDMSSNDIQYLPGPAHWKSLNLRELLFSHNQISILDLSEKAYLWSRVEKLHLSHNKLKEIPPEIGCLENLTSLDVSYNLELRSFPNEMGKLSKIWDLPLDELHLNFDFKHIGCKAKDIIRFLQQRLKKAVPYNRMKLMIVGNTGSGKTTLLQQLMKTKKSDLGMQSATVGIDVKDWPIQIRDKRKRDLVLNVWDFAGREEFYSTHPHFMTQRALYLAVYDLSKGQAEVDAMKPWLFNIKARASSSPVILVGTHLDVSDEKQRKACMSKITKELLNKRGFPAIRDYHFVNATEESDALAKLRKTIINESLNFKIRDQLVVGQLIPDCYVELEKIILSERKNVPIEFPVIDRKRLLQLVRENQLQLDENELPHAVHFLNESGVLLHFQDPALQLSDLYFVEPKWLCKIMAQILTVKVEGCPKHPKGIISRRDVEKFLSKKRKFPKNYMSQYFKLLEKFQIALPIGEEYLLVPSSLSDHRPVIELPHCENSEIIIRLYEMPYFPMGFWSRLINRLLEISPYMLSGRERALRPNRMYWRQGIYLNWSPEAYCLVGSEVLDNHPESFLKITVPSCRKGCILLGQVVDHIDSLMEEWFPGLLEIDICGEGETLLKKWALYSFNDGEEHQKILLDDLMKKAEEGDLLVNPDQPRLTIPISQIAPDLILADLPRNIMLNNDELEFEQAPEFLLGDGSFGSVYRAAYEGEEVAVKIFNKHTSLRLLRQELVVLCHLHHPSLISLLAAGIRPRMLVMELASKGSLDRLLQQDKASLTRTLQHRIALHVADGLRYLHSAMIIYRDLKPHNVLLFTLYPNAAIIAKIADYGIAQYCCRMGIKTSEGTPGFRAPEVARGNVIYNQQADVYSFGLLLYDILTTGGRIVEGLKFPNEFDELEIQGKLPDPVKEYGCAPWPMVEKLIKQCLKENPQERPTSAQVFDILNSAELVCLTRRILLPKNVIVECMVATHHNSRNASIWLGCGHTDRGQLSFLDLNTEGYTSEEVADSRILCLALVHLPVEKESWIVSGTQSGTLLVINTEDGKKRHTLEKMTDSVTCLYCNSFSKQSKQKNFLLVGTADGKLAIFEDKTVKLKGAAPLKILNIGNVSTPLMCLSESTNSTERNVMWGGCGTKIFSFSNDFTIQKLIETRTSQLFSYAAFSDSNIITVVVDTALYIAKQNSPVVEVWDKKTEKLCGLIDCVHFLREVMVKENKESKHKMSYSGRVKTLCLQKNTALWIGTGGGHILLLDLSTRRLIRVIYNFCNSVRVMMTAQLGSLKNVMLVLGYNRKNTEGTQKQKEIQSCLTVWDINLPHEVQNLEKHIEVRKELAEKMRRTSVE
Protocol: as §1
For the wild type LRRK the 2×LRRK2/ERM (LRRKtide) mixture was prepared in 50 mM Tris pH 8.5, 0.01% BRIJ-35, 10 mM MgCl2, 1 mM EGTA, 0.02% NaN3. […] After 1 hour Kinase Reaction incubation, 5 μL of Detection Mix was added.

LRRK2 G2019S = LRRK2 G2019S (Homo sapiens (Human), UniProt Q5S007, G2019S); assay: LRRK2 G2019S Kinase Assay; conditions: 10 μM ATP
Chain of LRRK2 G2019S (Q5S007 970-2527 G2019S): as the sequence (Q5S007 970-2527) above, with G1050S counted along it
Protocol: Procedure: Enzyme was incubated with substrate peptide in reaction buffer in the presence and absence of test compounds or Staurosporine. All additions were done on ice, followed by the addition of ATP mix. Wells were uniformly mixed using an Eppendorff plate shaker and incubated at 30° C. for 20 min, and stopped by the addition of 5 μl of 3% phosphoric acid. Volume was increased to 100 μl by adding 0.8% phosphoric acid which was then transferred to PC filter mats (Millipore), pre-equilibrated with 70% ethanol and water. Plates were washed thrice with 100 μl 0.8% phosphoric acid and dried for an hour at 60° C. 100 μl scintillation fluid was added into each well and reading taken in Perkin Elmer TOPCOUNT beta counter. […] A validation EC50 curve was generated by plotting CPM for each Staurosporine concentration on y-axis against the Log concentration of Staurosporine (nM) on the x-axis followed by a best fit curve through the points.
After 1 hour Kinase Reaction incubation, 5 μL of Detection Mix was added.

| Structure (SMILES) | IC50 (DYRK1A) | IC50 (LRRK2) | IC50 (LRRK2 G2019S) |
| --- | --- | --- | --- |
| Cc1n[nH]c2ncc(-c3cncc(N4CCCC4=O)n3)cc12 [Compound 48, 1-(6-(3-methyl-1H-pyrazolo[3,4-b]pyridin-5-yl)pyrazin-2-yl)pyrrolidin-2-one] | > 1000 nM | > 500 nM | > 500 nM |
| Clc1c[nH]c2ncc(-c3cncc(N4CCOCC4)n3)cc12 [Compound 149, 4-(6-(3-chloro-1H-pyrrolo[2,3-b]pyridin-5-yl)pyrazin-2-yl)morpholine] | < 500 nM | < 500 nM | < 500 nM |
| CN1CCN(c2cncc(-c3cnc4[nH]ccc4c3)n2)CC1 [Compound 125, 5-(6-(4-methylpiperazin-1-yl)pyrazin-2-yl)-1H-pyrrolo[2,3-b]pyridine] | < 500 nM | < 500 nM | < 500 nM |
| OC1CCN(c2cncc(-c3cnc4[nH]ccc4c3)n2)CC1 [Compound 137, 1-(6-(1H-pyrrolo[2,3-b]pyridin-5-yl)pyrazin-2-yl)piperidin-4-ol] | < 500 nM | < 500 nM | < 500 nM |
| FC1(F)CCN(c2cncc(-c3cnc4[nH]ccc4c3)n2)C1 [Compound 135, 5-(6-(3,3-difluoropyrrolidin-1-yl)pyrazin-2-yl)-1H-pyrrolo[2,3-b]pyridine] | > 500 nM | > 500 nM | > 500 nM |
| OCCN1CCN(c2cncc(-c3cnc4[nH]ccc4c3)n2)CC1 [Compound 126, 2-(4-(6-(1H-pyrrolo[2,3-b]pyridin-5-yl)pyrazin-2-yl)piperazin-1-yl)ethanol] | < 500 nM | < 500 nM | < 500 nM |
| Cc1n[nH]c2ncc(-c3cncc(C(=O)N4CCCCC4)n3)cc12 [Compound 77, (6-(3-methyl-1H-pyrazolo[3,4-b]pyridin-5-yl)pyrazin-2-yl)(piperidin-1-yl)metha-none] | > 1000 nM | > 500 nM | > 500 nM |
| Cc1n[nH]c2ncc(-c3cncc(NC4CCN(CCO)CC4)n3)cc12 [Compound 81, 2-(4-((6-(3-methyl-1H-pyrazolo[3,4-b]pyridin-5-yl)pyrazin-2-yl)amino)piperidin-1-yl)ethanol] | < 500 nM | < 500 nM | < 500 nM |
| Cc1n[nH]c2ncc(-c3cncc(NC4CCN(C(C)C)CC4)n3)cc12 [Compound 87, N-(1-isopropylpiperidin-4-yl)-6-(3-methyl-1H-pyrazolo[3,4-b]pyridin-5-yl)pyrazin-2-amine] | > 500 nM | > 500 nM | > 500 nM |
| CN(CC1CCOCC1)c1cncc(-c2cnc3[nH]cc(F)c3c2)n1 [Compound 145, 6-(3-fluoro-1H-pyrrolo[2,3-b]pyridin-5-yl)-N-methyl-N-((tetrahydro-2H-pyran-4-yl)methyl)pyrazin-2-amine] | < 500 nM | < 500 nM | < 500 nM |
| Cc1n[nH]c2ncc(-c3cncc(N4CCc5ccccc54)n3)cc12 [Compound 90, 5-(6-(indolin-1-yl)pyrazin-2-yl)-3-methyl-1H-pyrazolo[3,4-b]pyridine] | < 500 nM | < 500 nM | < 500 nM |
| Cc1n[nH]c2ncc(-c3cncc(N4CCNC(=O)C4)n3)cc12 [Compound 83, 4-(6-(3-methyl-1H-pyrazolo[3,4-b]pyridin-5-yl)pyrazin-2-yl)piperazin-2-one] | > 500 nM | > 500 nM | > 500 nM |
| Cc1n[nH]c2ncc(-c3cnn(C)c3)cc12 [Compound 108, 3-methyl-5-(1-methyl-1H-pyrazol-4-yl)-1H-pyrazolo[3,4-b]pyridine] | > 500 nM | > 500 nM | > 500 nM |
| CN(C)CCNc1cncc(-c2cnc3[nH]ccc3c2)n1 [Compound 127, N1-(6-(1H-pyrrolo[2,3-b]pyridin-5-yl)pyrazin-2-yl)-N2,N2-dimethylethane-1,2-diamine] | > 500 nM | > 500 nM | > 500 nM |
| Cc1n[nH]c2ncc(-c3cncc(OCCN4CCN(C)CC4)n3)cc12 [Compound 33, 5-(6-(2-(4-methylpiperazin-1-yl)ethoxy)pyrazin-2-yl)-3-methyl-1H-pyrazolo[3,4-b]pyridine] | > 500 nM | > 500 nM | > 500 nM |
| CN1CCN(Cc2cccc(-c3cnc4[nH]ccc4c3)c2)CC1 [Compound 152, 5-(3-((4-methylpiperazin-1-yl)methyl)phenyl)-1H-pyrrolo[2,3-b]pyridine] | < 500 nM | < 500 nM | < 500 nM |
| Cc1n[nH]c2ncc(-c3cccc(NC4CCN(C)CC4)c3)cc12 [Compound 98, 1-methyl-N-(3-(3-methyl-1H-pyrazolo[3,4-b]pyridin-5-yl)phenyl)piperidin-4-amine] | > 1000 nM | > 1000 nM | > 1000 nM |
| Cc1n[nH]c2ncc(NC3CCCN(Cc4ccc(F)cc4)C3)cc12 (stereo not drawn) [Compound 22, N-(1-(4-fluorobenzyl)piperidine-3-yl)-3-methyl-1H-pyrazolo[3,4-b]pyridine-5-amine] | > 500 nM | > 500 nM | > 500 nM |
| Fc1c[nH]c2ncc(-c3cncc(N4CCOCC4)n3)cc12 [Compound 150, 4-(6-(3-fluoro-1H-pyrrolo[2,3-b]pyridin-5-yl)pyrazin-2-yl)morpholine] | < 500 nM | < 500 nM | < 500 nM |
| Cc1n[nH]c2ncc(-c3cncc(NC(=O)C4CCN(C)CC4)n3)cc12 [Compound 39] | > 500 nM | > 500 nM | > 500 nM |
| Cc1n[nH]c2ncc(NC3CCCN(Cc4ccc(Cl)cc4)C3)cc12 (stereo not drawn) [Compound 27, N-(1-(4-Chlorobenzyl)piperidin-3-yl)-3-methyl-1H-pyrazolo[3,4-b]pyridid-5-amine] | > 500 nM | > 500 nM | > 500 nM |
| c1cnc(N2CCCC2)c(-c2cnc3[nH]ccc3c2)n1 [Compound 128, 5-(3-(pyrrolidin-1-yl)pyrazin-2-yl)-1H-pyrrolo[2,3-b]pyridine] | > 500 nM | > 500 nM | > 500 nM |
| COc1ccccc1-c1n[nH]c2ncc(-c3ccsc3)cc12 [Compound 183, 3-(2-methoxyphenyl)-5-(thiophen-3-yl)-1H-pyrazolo[3,4-b]pyridine] | < 500 nM | < 500 nM | < 500 nM |
| O=C1CCCN1c1cncc(-c2cnc3[nH]ccc3c2)n1 [Compound 131, 1-(6-(1H-pyrrolo[2,3-b]pyridin-5-yl)pyrazin-2-yl)pyrrolidin-2-one] | > 500 nM | > 500 nM | > 500 nM |
| Cc1n[nH]c2ncc(-c3cncc(NC4CCN(C)C4)n3)cc12 (stereo not drawn) [Compound 51, 6-(3-methyl-1H-pyrazolo[3,4-b]pyridin-5-yl)-N-(1-methylpyrrolidin-3-yl)pyrazin-2-amine] | > 1000 nM | > 500 nM | > 500 nM |
| Cc1n[nH]c2ncc(-c3cncc(Nc4cccc(N5CCCC5=O)c4)n3)cc12 [Compound 94, 1-(3-((6-(3-methyl-1H-pyrazolo[3,4-b]pyridin-5-yl)pyrazin-2-yl)amino)phenyl)pyrrolidin-2-one] | > 500 nM | < 500 nM | < 500 nM |
| CN(CC1CCOCC1)c1cncc(-c2cnc3[nH]cc(Cl)c3c2)n1 [Compound 144, 6-(3-chloro-1H-pyrrolo[2,3-b]pyridin-5-yl)-N-methyl-N-((tetrahydro-2H-pyran-4-yl)methyl)pyrazin-2-amine] | < 500 nM | < 500 nM | < 500 nM |
